These results are taken from ChEMBL document CHEMBL4622979, “Non-rigid Diarylmethyl Analogs of Baloxavir as Cap-Dependent Endonuclease Inhibitors of Influenza Viruses” (J Med Chem, 2020).

Molecules are shown by their SMILES.

Data set [1] in a line: Cmax in CD1 mouse lung assessed as baloxavir acid level at 15 mg/kg, po administered as single dose by LC-MS/MS analysis. Type of data set: ADME, organism-based. On the set-up: dose 15 mg/kg, route oral. Conditions: in vivo.
Data set [2] can be described thus: AUClast in CD1 mouse lung assessed as baloxavir acid level at 15 mg/kg, po administered as single dose measured up to 24 hrs by LC-MS/MS analysis. It counts as ADME, organism-based. The note with it: in vivo.
A short description of data set [3]: Ratio of AUClast in CD1 mouse heart to plasma assessed as baloxavir acid level at 15 mg/kg, po administered as single dose measured up to 24 hrs by LC-MS/MS analysis. It counts as ADME, organism-based. Conditions: other tissue.
Data set [4] in a line: Half life in CD1 mouse liver assessed as baloxavir acid level at 15 mg/kg, po administered as single dose measured up to 24 hrs by LC-MS/MS analysis. It counts as ADME, organism-based. Conditions: in vivo.
Data set [5] in a line: Tmax in CD1 mouse blood assessed as baloxavir acid level at 15 mg/kg, po administered as single dose measured up to 24 hrs by LC-MS/MS analysis. Type of data set: ADME, organism-based. The note with it: in vivo.
Data set [6] is described as follows: Cmax in CD1 mouse kidney assessed as baloxavir acid level at 15 mg/kg, po administered as single dose measured up to 24 hrs by LC-MS/MS analysis. It counts as ADME, organism-based. On the set-up: dose 15 mg/kg, route oral. The note with it: in vivo.
A short description of data set [7]: AUCinfinity in CD1 mouse heart assessed as baloxavir acid level at 15 mg/kg, po administered as single dose measured up to 24 hrs by LC-MS/MS analysis. Type of data set: ADME, organism-based. On the set-up: dose 15 mg/kg, time infinity, route oral. Conditions: in vivo.
The nature of data set [8]: Elimination rate constant in CD1 mouse liver assessed as baloxavir acid level at 15 mg/kg, po administered as single dose measured up to 24 hrs by LC-MS/MS analysis. Type of data set: ADME, organism-based. Conditions: in vivo.
A short description of data set [9]: AUClast in CD1 mouse plasma assessed as baloxavir acid level at 15 mg/kg, po administered as single dose by LC-MS/MS analysis. Type of data set: ADME, organism-based. On the set-up: dose 15 mg/kg, route oral, time 0 - last. Conditions: in vivo.
Data set [10] is described as follows: MRTlast in CD1 mouse liver assessed as baloxavir acid level at 15 mg/kg, po administered as single dose measured up to 24 hrs by LC-MS/MS analysis. It counts as ADME, organism-based. Conditions: in vivo.
A short description of data set [11]: Ratio of AUClast in CD1 mouse muscle to plasma assessed as baloxavir acid level at 15 mg/kg, po administered as single dose measured up to 24 hrs by LC-MS/MS analysis. Type of data set: ADME, organism-based. Conditions: other tissue.
A short description of data set [12]: Elimination rate constant in CD1 mouse small intestine assessed as baloxavir acid level at 15 mg/kg, po administered as single dose measured up to 24 hrs by LC-MS/MS analysis. The note with it: in vivo. Type of data set: ADME, organism-based.
A short description of data set [13]: Ratio of AUClast in CD1 mouse blood to plasma assessed as baloxavir acid level at 15 mg/kg, po administered as single dose measured up to 24 hrs by LC-MS/MS analysis. Type of data set: ADME, organism-based. The note with it: in vivo.
Data set [14] in a line: AUClast in CD1 mouse plasma assessed as baloxavir acid level at 15 mg/kg, po administered as single dose measured up to 24 hrs by LC-MS/MS analysis. The note with it: in vivo. On the set-up: time < 24 hr, dose 15 mg/kg, route oral. Type of data set: ADME, organism-based.
The nature of data set [15]: Half life in CD1 mouse brain assessed as (12aR)-12-(Diphenylmethyl)-7-hydroxy-3,4,12,12a-tetrahydro-1H-[1,4]oxazino[3,4-c]pyrido[2,1-f ][1,2,4]triazine-6,8-dione level at 15 mg/kg, po administered as single dose measured up to 24 hrs by LC-MS/MS analysis. Type of data set: ADME, organism-based. Conditions: in vivo.
Data set [16] is described as follows: Elimination rate constant in CD1 mouse trachea assessed as (12aR)-12-(Diphenylmethyl)-7-hydroxy-3,4,12,12a-tetrahydro-1H-[1,4]oxazino[3,4-c]pyrido[2,1-f ][1,2,4]triazine-6,8-dione level at 15 mg/kg, po administered as single dose measured up to 24 hrs by LC-MS/MS analysis. It counts as ADME, organism-based. The note with it: in vivo.
Data set [17] can be described thus: Half life in CD1 mouse spleen assessed as (12aR)-12-(Diphenylmethyl)-7-hydroxy-3,4,12,12a-tetrahydro-1H-[1,4]oxazino[3,4-c]pyrido[2,1-f ][1,2,4]triazine-6,8-dione level at 15 mg/kg, po administered as single dose measured up to 24 hrs by LC-MS/MS analysis. It counts as ADME, organism-based. Conditions: in vivo.
Data set [18] can be described thus: AUClast in CD1 mouse lung assessed as (12aR)-12-(Diphenylmethyl)-7-hydroxy-3,4,12,12a-tetrahydro-1H-[1,4]oxazino[3,4-c]pyrido[2,1-f ][1,2,4]triazine-6,8-dione level at 15 mg/kg, po administered as single dose measured up to 24 hrs by LC-MS/MS analysis. It counts as ADME, organism-based. Conditions: in vivo.
A short description of data set [19]: Cmax in CD1 mouse plasma assessed as (12aR)-12-(Diphenylmethyl)-7-hydroxy-3,4,12,12a-tetrahydro-1H-[1,4]oxazino[3,4-c]pyrido[2,1-f ][1,2,4]triazine-6,8-dione level at 15 mg/kg, po administered as single dose measured up to 24 hrs by LC-MS/MS analysis. It counts as ADME, organism-based. On the set-up: dose 15 mg/kg, route oral. The note with it: in vivo.
A short description of data set [20]: Stability in rat plasma assessed as parent compound remaining at 1 uM measured after 4 hrs by LC-MS/MS analysis. Type of data set: ADME, cell-free. Conditions: read-out: Stability.
The nature of data set [21]: Stability in mouse plasma assessed as parent compound remaining at 1 uM measured after 4 hrs by LC-MS/MS analysis. It counts as ADME, cell-free. Conditions: read-out: Stability.
Data set [22] in a line: AUClast in CD1 mouse lung assessed as (12aR)-12-(Diphenylmethyl)-7-hydroxy-3,4,12,12a-tetrahydro-1H-[1,4]oxazino[3,4-c]pyrido[2,1-f ][1,2,4]triazine-6,8-dione level at 15 mg/kg, po administered as single dose by LC-MS/MS analysis. The note with it: in vivo. It counts as ADME, organism-based.
The nature of data set [23]: AUCinfinity in CD1 mouse lung assessed as (12aR)-12-(Diphenylmethyl)-7-hydroxy-3,4,12,12a-tetrahydro-1H-[1,4]oxazino[3,4-c]pyrido[2,1-f ][1,2,4]triazine-6,8-dione level at 15 mg/kg, po administered as single dose measured up to 24 hrs by LC-MS/MS analysis. Type of data set: ADME, organism-based. On the set-up: dose 15 mg/kg, route oral, time infinity. Conditions: in vivo.

A short description of data set [24]: Cmax in CD1 mouse lung assessed as (12aR)-12-(Diphenylmethyl)-7-hydroxy-3,4,12,12a-tetrahydro-1H-[1,4]oxazino[3,4-c]pyrido[2,1-f ][1,2,4]triazine-6,8-dione level at 15 mg/kg, po administered as single dose measured up to 24 hrs by LC-MS/MS analysis. The note with it: in vivo. On the set-up: dose 15 mg/kg, route oral. It counts as ADME, organism-based.
Data set [25] can be described thus: Cmax in CD1 mouse lung assessed as (12aR)-12-(Diphenylmethyl)-7-hydroxy-3,4,12,12a-tetrahydro-1H-[1,4]oxazino[3,4-c]pyrido[2,1-f ][1,2,4]triazine-6,8-dione level at 15 mg/kg, po administered as single dose by LC-MS/MS analysis. Type of data set: ADME, organism-based. Conditions: in vivo. On the set-up: dose 15 mg/kg, route oral.
A short description of data set [26]: Elimination rate constant in CD1 mouse muscle assessed as (12aR)-12-(Diphenylmethyl)-7-hydroxy-3,4,12,12a-tetrahydro-1H-[1,4]oxazino[3,4-c]pyrido[2,1-f ][1,2,4]triazine-6,8-dione level at 15 mg/kg, po administered as single dose measured up to 24 hrs by LC-MS/MS analysis. It counts as ADME, organism-based, Muscle tissue. Conditions: in vivo.
The nature of data set [27]: Ratio of AUClast in CD1 mouse blood to plasma assessed as (12aR)-12-(Diphenylmethyl)-7-hydroxy-3,4,12,12a-tetrahydro-1H-[1,4]oxazino[3,4-c]pyrido[2,1-f ][1,2,4]triazine-6,8-dione level at 15 mg/kg, po administered as single dose measured up to 24 hrs by LC-MS/MS analysis. It counts as ADME, organism-based. The note with it: in vivo.

For orientation: Cmax means the peak of the concentration-time curve. One may read the Tmax as the time at which the peak concentration occurs. For the molecule `COC(=O)OCOc1c2n(ccc1=O)N([C@@H]1c3ccccc3SCc3c1ccc(F)c3F)[C@@H]1COCCN1C2=O` [BALOXAVIR MARBOXIL], the values for the Cmax in data set [1] and in data set [6] were 1517 ng/g and 2998 ng/g, respectively. Further, the AUClast in data set [2] is 8959 ng·h/g; in data set [9] it was 715 ng·h/mL; in [14], 452 ng·h/mL. Moreover, the “Ratio AUC” value is 19.8 in data set [3], 10.4 in [11] and 3.05 in data set [13]. Moreover, the t1/2 in data set [4] is 2.57 h. Besides, the Tmax in data set [5] worked out at 2 h. Besides, the AUC in [7] was found to be 9025 ng·h/g. Further, the Kel was 0.27 h⁻¹ in data set [8] and 0.22 h⁻¹ in data set [12]. For the same molecule, the MRTlast in [10] was found to be 2.92 h.
In the case of `COC(=O)OCOc1c2n(ccc1=O)N(C(c1ccccc1)c1ccccc1)[C@@H]1COCCN1C2=O`, the t1/2 in [15] was determined as 8.18 h; in [17] it was 1.77 h. The Kel in data set [16] came to 0.14 h⁻¹; in [26] it was 0.4 h⁻¹. For the same molecule, the AUClast was found to be 8320 ng·h/g in data set [18] and 11923 ng·h/g in data set [22]. Further, the maximum concentration (Cmax) in data set [19] came out at 1251 ng/mL; in data set [24], 2847 ng/g; in data set [25], 1882 ng/g. For the same molecule, the remaining at 4 h, 1 µM in [20] and in data set [21] was 0% each time. The AUC in [23] turned out to be 8547 ng·h/g. In addition, the “Ratio AUC” value in data set [27] stood at 0.82.
